From ChEMBL document CHEMBL1135341, “Analogue based design of MMP-13 (Collagenase-3) inhibitors” (Bioorg Med Chem Lett, 2002)

Molecular target: Collagenase 3 (Homo sapiens, UniProt P45452)
Test: Inhibitory activity against recombinant human matrix metalloprotease-13

Row | IC50 [nM] | Compound
1 | 87.1 | COCCOCCC#CCC(NS(=O)(=O)c1ccc(-c2ccc(OC)cc2)cc1)C(=O)O (configuration not stated)
2 | 89.1 | O=C(O)C(CC#Cc1ccccc1)NS(=O)(=O)c1ccc(C#Cc2ccccc2)cc1 (configuration not stated)
